The assay concerns the target mouse TRPM3α2 (mTRPM3) ion channel (Mus musculus (Mouse), UniProt J9SQF3). As to the kind of experiment: TRPM3 ion channel driven Ca2+ uptake, Fluo-4 AM assay, mTRPM3alpha2 overexpressing flip-in HEK293 cells stimulated with pregnenolone sulfate. The class given is cell-based. In short, it runs like this:
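Flip-in HEK293 cells loaded with Fluo-4 AM were added to plates holding compound plus 50 μM pregnenolone sulfate in Ca2+-containing Krebs buffer. Fluorescence (ex 485/em 535 nm) read directly after cell addition; % inhibition relative to PS-stimulated vehicle and positive-control inhibitor.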

[1] abbreviates: PS (50 μM) stimulated, cpd 001-199.
Setting [2] is: PS (50 μM) stimulated, cpds. 500-599.
The mark [3] stands for this setting: PS (50 μM) stimulated, cpds. 400-499.
The mark [4] stands for this setting: PS (50 μM) stimulated, cpds. 608-666.

The record followed here is US12209081B2 (Katholieke Universiteit Leuven, priority 2020, dated 2025).

Sequence of mouse TRPM3α2 (mTRPM3) ion channel (J9SQF3 other isoform, or with tags, fused parts or gaps): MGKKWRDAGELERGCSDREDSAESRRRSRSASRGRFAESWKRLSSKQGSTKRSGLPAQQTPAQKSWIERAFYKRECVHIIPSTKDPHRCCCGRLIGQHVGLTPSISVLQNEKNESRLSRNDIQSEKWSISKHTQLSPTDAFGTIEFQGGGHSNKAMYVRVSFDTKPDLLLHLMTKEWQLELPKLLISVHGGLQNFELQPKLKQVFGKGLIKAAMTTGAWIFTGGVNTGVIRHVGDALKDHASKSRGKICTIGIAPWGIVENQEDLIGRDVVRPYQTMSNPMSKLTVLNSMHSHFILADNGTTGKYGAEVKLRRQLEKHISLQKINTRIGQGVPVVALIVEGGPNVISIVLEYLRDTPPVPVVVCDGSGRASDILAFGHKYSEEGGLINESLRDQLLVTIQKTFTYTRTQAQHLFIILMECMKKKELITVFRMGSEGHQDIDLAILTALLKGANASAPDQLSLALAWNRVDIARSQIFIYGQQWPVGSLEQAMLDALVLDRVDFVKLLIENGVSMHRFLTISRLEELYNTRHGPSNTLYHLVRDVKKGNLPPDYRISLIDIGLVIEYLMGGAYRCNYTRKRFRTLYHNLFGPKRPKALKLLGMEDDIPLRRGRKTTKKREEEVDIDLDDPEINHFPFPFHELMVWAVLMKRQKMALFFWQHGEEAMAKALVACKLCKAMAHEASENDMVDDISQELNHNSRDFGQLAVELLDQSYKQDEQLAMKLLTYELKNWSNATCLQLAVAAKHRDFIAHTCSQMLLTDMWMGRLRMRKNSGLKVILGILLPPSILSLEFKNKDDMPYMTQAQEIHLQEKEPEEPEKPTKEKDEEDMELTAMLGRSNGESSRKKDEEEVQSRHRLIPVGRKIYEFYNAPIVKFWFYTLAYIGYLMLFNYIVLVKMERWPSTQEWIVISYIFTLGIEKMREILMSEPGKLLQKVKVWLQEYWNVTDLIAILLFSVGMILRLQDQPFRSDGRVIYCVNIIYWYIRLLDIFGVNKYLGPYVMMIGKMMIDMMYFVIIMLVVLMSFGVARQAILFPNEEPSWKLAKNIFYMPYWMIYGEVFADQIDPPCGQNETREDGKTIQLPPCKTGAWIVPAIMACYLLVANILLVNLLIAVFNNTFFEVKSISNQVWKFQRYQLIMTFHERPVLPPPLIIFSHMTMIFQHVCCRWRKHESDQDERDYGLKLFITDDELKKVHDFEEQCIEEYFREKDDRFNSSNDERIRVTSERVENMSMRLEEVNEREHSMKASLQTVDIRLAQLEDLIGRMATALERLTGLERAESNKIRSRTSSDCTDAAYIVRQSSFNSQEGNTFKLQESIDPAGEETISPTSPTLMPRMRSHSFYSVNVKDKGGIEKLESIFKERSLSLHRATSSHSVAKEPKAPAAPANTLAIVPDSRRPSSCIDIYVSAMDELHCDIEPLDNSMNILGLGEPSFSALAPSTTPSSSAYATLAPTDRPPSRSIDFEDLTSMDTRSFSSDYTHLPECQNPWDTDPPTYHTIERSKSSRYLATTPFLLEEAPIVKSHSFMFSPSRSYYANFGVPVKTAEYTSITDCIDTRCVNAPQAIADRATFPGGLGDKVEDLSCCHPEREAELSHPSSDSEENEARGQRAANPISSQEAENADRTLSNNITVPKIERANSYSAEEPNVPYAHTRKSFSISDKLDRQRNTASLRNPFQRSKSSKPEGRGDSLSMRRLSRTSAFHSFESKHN

For orientation: IC50 means the concentration that inhibits the measured activity by half. Under setting [1], `Cc1cc2oc(C)c(C(=O)NC3CCNCC3(F)F)c2cc1OCc1cccnc1C(F)(F)F` (single isomer, unassigned) [179-En 1, N-(3,3-difluoropiperidin-4-yl)-2,6-dimethyl-5-((2-(trifluoromethyl)pyridin-3-yl)methoxy)benzo-furan-3-carboxamide] came in with an IC50 of 1 to 20 µM.
As for `Cc1coc(COc2ccc3oc(C)c(C(=O)NC4CCNCC4(F)F)c3c2)n1` (single isomer, unassigned) [cpd 551-En 2], the IC50 under setting [2] was in the range of 1 to 20 µM.
Same read-out and setting: the figure for `Cc1oc2ccc(OCc3nccs3)cc2c1C(=O)NC1(C(N)=O)COC1` [compound 582, N-(3-carbamoyloxetan-3-yl)-2-methyl-5-(thiazol-2-ylmethoxy)benzofuran-3-carboxamide] is less than 1 µM; for `Cc1oc2ccc(OCc3cn(C)nn3)cc2c1C(=O)NC1CCNCC1(F)F` (single isomer, unassigned) [cpd 540-En 2] it is greater than 20 µM.
`Cc1oc2ccc(OCc3cccnn3)cc2c1C(=O)N[C@@H](CO)C(N)=O` [compound 293, (S)-N-(1-amino-3-hydroxy-1-oxopropan-2-yl)-2-methyl-5-(pyridazin-3-ylmethoxy)benzofuran-3-carboxamide] came in with a half-inhibitory concentration (IC50) (PS 50 μM, cpds 200-299) of less than 1 µM.
Compound `Cc1oc2ccc(OCc3ncsc3C)cc2c1C(=O)N[C@@H](CO)C(N)=O` [compound 290, (S)-N-(1-amino-3-hydroxy-1-oxopropan-2-yl)-2-methyl-5-((5-methylthiazol-4-yl)methoxy)benzofuran-3-carboxamide] yielded an IC50 (PS 50 μM, cpds 200-299) of less than 1 µM.
Regarding `Cc1oc2ccc(OCc3cccnc3C(F)(F)F)cc2c1C(=O)Nc1cn[nH]c1` [compound 158, 2-methyl-N-(1H-pyrazol-4-yl)-5-((2-(trifluoromethyl)pyridin-3-yl)methoxy)benzofuran-3-carboxamide], under setting [1], the IC50 was less than 1 µM.
On to `Cc1oc2ccc(OCc3ncn(C)n3)cc2c1C(=O)NC1CCNCC1(F)F` (single isomer, unassigned) [cpd 542-En 1], for which the IC50 under setting [2] fell in the range of 1 to 20 µM.
With `Cc1oc2ccc(OCc3cnn(C)c3)cc2c1C(=O)N[C@@H](CO)C(N)=O` [compound 698, (S)-N-(1-Amino-3-hydroxy-1-oxopropan-2-yl)-2-methyl-5-((1-methyl-1H-pyrazol-4-yl)methoxy)benzofuran-3-carboxamide], the IC50 (PS (50 μM) stimulated, cpds. 667-751) is less than 1 µM.
As to `Cc1oc2ccc(OCc3nccs3)cc2c1C(=O)NC1(CO)CCOCC1` [compound 049, N-(4-(hydroxymethyl)tetrahydro-2H-pyran-4-yl)-2-methyl-5-(thiazol-2-ylmethoxy)benzofuran-3-carboxamide], under setting [1], the half-inhibitory concentration (IC50) is less than 1 µM.
Under setting [3], `Cc1oc2ccc(OCc3cccnn3)cc2c1C(=O)NC(C)(CO)CO` [compound 427, N-(1,3-dihydroxy-2-methylpropan-2-yl)-2-methyl-5-(pyridazin-3-ylmethoxy)benzofuran-3-carboxamide] yielded an IC50 of less than 1 µM.
Under setting [2], `Cc1ncc(COc2ccc3oc(C)c(C(=O)NC4CCNCC4(F)F)c3c2)s1` (single isomer, unassigned) [cpd 549-En 1] yielded an IC50 of less than 1 µM.
The compound `Cc1ncsc1COc1ccc2oc(C)c(C(=O)NCC(C)(F)F)c2c1` [compound 500, N-(2,2-difluoropropyl)-2-methyl-5-((4-methylthiazol-5-yl)methoxy)benzofuran-3-carboxamide] yielded an IC50 under setting [2] of less than 1 µM.
With `COc1ncccc1COc1ccc2oc(C)c(C(=O)NC3COCC3(F)F)c2c1` (stereo not shown) [compound 665, N-(4,4-difluorotetrahydrofuran-3-yl)-5-((2-methoxypyridin-3-yl)methoxy)-2-methylbenzofuran-3-carboxamide], the half-maximal inhibitory concentration (IC50) under setting [4] was less than 1 µM.
As to `Cc1ncc(COc2ccc3oc(C)c(C(=O)NC(C)(C)C(N)=O)c3c2)s1` [compound 439, N-(1-amino-2-methyl-1-oxopropan-2-yl)-2-methyl-5-((2-methylthiazol-5-yl)methoxy)benzofuran-3-carboxamide], the 50% inhibitory concentration (IC50) under setting [3] was less than 1 µM.
`Cc1oc2ccc(OCc3nccn3C)cc2c1C(=O)NC1COCC1(F)F` (single isomer, unassigned) [cpd 641-En 1] had an IC50 under setting [4] of 1 to 20 µM.
